# What was measured:
# Assay type in all cases: in vivo
# [1] = test system: Dolium multiflorum (LOLMU, ryegrass); assay: Post-emergence herbicidal evaluation; settings: rate 0.100 kg/ha, 3 weeks after treatment
# Description: (§1) These acetone solutions are diluted with water and the resulting formulations applied at dosage levels equivalent of about 0.025 to 0.4 kg per hectare of test compound per pot. After spraying the plants are placed on greenhouse benches and are cared for in the usual manner, commensurate with conventional greenhouse practices. From 3 weeks after treatment, the seedling plants are examined and rated according to the rating system provided above. A rating 0 indicates growth as untreated control, a rating 9 indicates death.
# [2] = test system: Setaria viridis (SETVI, green foxtail); assay: Post-emergence herbicidal evaluation; settings: 3 weeks after treatment
# Description: as §1
# [3] = test system: Matricaria inodora (MATIN, mayweed); assay: Post-emergence herbicidal evaluation; settings: 3 weeks after treatment
# Description: as §1
# [4] = test system: Abutilon theophrasti (ABUTH, velvetleaf); assay: Post-emergence herbicidal evaluation; settings: 3 weeks after treatment
# Description: as §1
# [5] = test system: Galium aparine (GALAP, cleaver); assay: Post-emergence herbicidal evaluation; settings: 3 weeks after treatment
# Description: as §1
# [6] = test system: Ipomoea hederacea (IPOHE, morning glory); assay: Post-emergence herbicidal evaluation; settings: 3 weeks after treatment
# Description: as §1
# [7] = test system: Echinochloa grus galli (ECHCG, barnyard grass); assay: Post-emergence herbicidal evaluation; settings: 3 weeks after treatment
# Description: as §1
# [8] = test system: Stellaria media (STEME, chickweed); assay: Post-emergence herbicidal evaluation; settings: 3 weeks after treatment
# Description: as §1
# [9] = test system: Alopecurus myosuroides (ALOMY, black grass); assay: Post-emergence herbicidal evaluation; settings: 3 weeks after treatment
# Description: as §1
# [10] = test system: Zea mays (ZEAMX, maize); assay: Pre-emergence herbicidal evaluation (crop); settings: 3 weeks after treatment
# Description: (§2) The pre-emergence herbicidal activity of the compounds of the present invention is exemplified by the following test in which the seeds of a variety of monocotyledonous and dicotyledonous plants are seperately mixed with potting soil and planted on top of approximately one inch of soil in separate post. After planting, the pots are sprayed with the selected aqueous acetone solution. containing test compound in sufficient quantity to provide the equivalent of about 0.025 to 0.4 kg per hectare of test compound per pot. The treated pots are then placed on greenhouse benches, watered and cared for in accordance with conventional greenhouse procedures. From 3 weeks after treatment, the tests are terminated and each pot is examined and rated according to the rating system set forth below. [table] [table]
# [11] = test system: Glycine max (GLXMA, soyabeans); assay: Pre-emergence herbicidal evaluation (crop); settings: 3 weeks after treatment
# Description: as §2
# [12] = test system: Triticum aestivum (TRZAW, winter wheat); assay: Pre-emergence herbicidal evaluation (crop); settings: 3 weeks after treatment
# Description: as §2
# [13] = test system: Setaria viridis (SETVI, green foxtail); assay: Pre-emergence herbicidal evaluation; settings: 3 weeks after treatment
# Description: as §2
# [14] = test system: Matricaria inodora (MATIN, mayweed); assay: Pre-emergence herbicidal evaluation; settings: 3 weeks after treatment
# Description: as §2
# [15] = test system: Abutilon theophrasti (ABUTH, velvetleaf); assay: Pre-emergence herbicidal evaluation; settings: 3 weeks after treatment
# Description: as §2
# [16] = test system: Galium aparine (GALAP, cleaver); assay: Pre-emergence herbicidal evaluation; settings: 3 weeks after treatment
# Description: as §2
# [17] = test system: Ipomoea hederacea (IPOHE, morning glory); assay: Pre-emergence herbicidal evaluation; settings: 3 weeks after treatment
# Description: as §2
# [18] = test system: Echinochloa grus galli (ECHCG, barnyard grass); assay: Pre-emergence herbicidal evaluation; settings: 3 weeks after treatment
# Description: as §2
# [19] = test system: Stellaria media (STEME, chickweed); assay: Pre-emergence herbicidal evaluation; settings: 3 weeks after treatment
# Description: as §2
# [20] = test system: Alopecurus myosuroides (ALOMY, black grass); assay: Pre-emergence herbicidal evaluation; settings: 3 weeks after treatment
# Description: as §2
smiles,measurement,setting,value
"Cc1cc(OCCC(Cl)SC(F)(F)F)nc(Oc2cc(C(F)(F)F)nn2C)c1 (stereo not shown) [Example 3, 2-(1-Methyl-3-trifluoromethylpyrazol-5-yloxy)-4-methyl-6-(3-chloro-3-trifluoromethylthiopropyloxy)pyridine]",LOLMU rating,[1],8 (8 - Approaching complete kill)
same,SETVI rating,[2]; rate 0.025 kg/ha,8 (8 - Approaching complete kill)
same,SETVI rating,[2]; rate 0.100 kg/ha,9 (9 - Complete kill)
same,SETVI rating,[2]; rate 0.400 kg/ha,9 (9 - Complete kill)
same,MATIN rating,[3]; rate 0.025 kg/ha,5 (5 - Definite injury)
same,MATIN rating,[3]; rate 0.100 kg/ha,6 (6 - Herbicidal effect)
same,MATIN rating,[3]; rate 0.400 kg/ha,7 (7 - Good herbicidal effect)
same,ABUTH rating,[4]; rate 0.025 kg/ha,5 (5 - Definite injury)
same,ABUTH rating,[4]; rate 0.100 kg/ha,7 (7 - Good herbicidal effect)
same,ABUTH rating,[4]; rate 0.400 kg/ha,7 (7 - Good herbicidal effect)
same,GALAP rating,[5]; rate 0.025 kg/ha,8 (8 - Approaching complete kill)
same,GALAP rating,[5]; rate 0.100 kg/ha,8 (8 - Approaching complete kill)
same,GALAP rating,[5]; rate 0.400 kg/ha,8 (8 - Approaching complete kill)
same,IPOHE rating,[6]; rate 0.025 kg/ha,9 (9 - Complete kill)
same,IPOHE rating,[6]; rate 0.100 kg/ha,9 (9 - Complete kill)
same,IPOHE rating,[6]; rate 0.400 kg/ha,9 (9 - Complete kill)
same,ECHCG rating,[7]; rate 0.025 kg/ha,6 (6 - Herbicidal effect)
same,ECHCG rating,[7]; rate 0.100 kg/ha,8 (8 - Approaching complete kill)
same,ECHCG rating,[7]; rate 0.400 kg/ha,9 (9 - Complete kill)
same,STEME rating,[8]; rate 0.025 kg/ha,4 (4 - Injury)
same,STEME rating,[8]; rate 0.100 kg/ha,5 (5 - Definite injury)
same,STEME rating,[8]; rate 0.400 kg/ha,6 (6 - Herbicidal effect)
same,ALOMY rating,[9]; rate 0.025 kg/ha,5 (5 - Definite injury)
same,ALOMY rating,[9]; rate 0.100 kg/ha,7 (7 - Good herbicidal effect)
same,ALOMY rating,[9]; rate 0.400 kg/ha,7 (7 - Good herbicidal effect)
same,ZEAMX rating,[10]; rate 0.025 kg/ha,2 (2 - Slight effect)
same,ZEAMX rating,[10]; rate 0.100 kg/ha,2 (2 - Slight effect)
same,ZEAMX rating,[10]; rate 0.400 kg/ha,3 (3 - Moderate effect)
same,GLXMA rating,[11]; rate 0.025 kg/ha,1 (1 - Trace effect)
same,GLXMA rating,[11]; rate 0.100 kg/ha,1 (1 - Trace effect)
same,GLXMA rating,[11]; rate 0.400 kg/ha,2 (2 - Slight effect)
same,TRZAW rating,[12]; rate 0.025 kg/ha,1 (1 - Trace effect)
same,TRZAW rating,[12]; rate 0.100 kg/ha,2 (2 - Slight effect)
same,TRZAW rating,[12]; rate 0.400 kg/ha,3 (3 - Moderate effect)
same,SETVI rating,[13]; rate 0.025 kg/ha,8 (8 - Approaching complete kill)
same,SETVI rating,[13]; rate 0.100 kg/ha,9 (9 - Complete kill)
same,SETVI rating,[13]; rate 0.400 kg/ha,9 (9 - Complete kill)
same,MATIN rating,[14]; rate 0.025 kg/ha,8 (8 - Approaching complete kill)
same,MATIN rating,[14]; rate 0.100 kg/ha,9 (9 - Complete kill)
same,MATIN rating,[14]; rate 0.400 kg/ha,9 (9 - Complete kill)
same,ABUTH rating,[15]; rate 0.025 kg/ha,5 (5 - Definite injury)
same,ABUTH rating,[15]; rate 0.100 kg/ha,5 (5 - Definite injury)
same,ABUTH rating,[15]; rate 0.400 kg/ha,7 (7 - Good herbicidal effect)
same,GALAP rating,[16]; rate 0.025 kg/ha,2 (2 - Slight effect)
same,GALAP rating,[16]; rate 0.100 kg/ha,7 (7 - Good herbicidal effect)
same,GALAP rating,[16]; rate 0.400 kg/ha,7 (7 - Good herbicidal effect)
same,IPOHE rating,[17]; rate 0.025 kg/ha,7 (7 - Good herbicidal effect)
same,IPOHE rating,[17]; rate 0.100 kg/ha,9 (9 - Complete kill)
same,IPOHE rating,[17]; rate 0.400 kg/ha,9 (9 - Complete kill)
same,ECHCG rating,[18]; rate 0.025 kg/ha,4 (4 - Injury)
same,ECHCG rating,[18]; rate 0.100 kg/ha,6 (6 - Herbicidal effect)
same,ECHCG rating,[18]; rate 0.400 kg/ha,8 (8 - Approaching complete kill)
same,STEME rating,[19]; rate 0.025 kg/ha,9 (9 - Complete kill)
same,STEME rating,[19]; rate 0.100 kg/ha,9 (9 - Complete kill)
same,STEME rating,[19]; rate 0.400 kg/ha,9 (9 - Complete kill)
same,ALOMY rating,[20]; rate 0.025 kg/ha,5 (5 - Definite injury)
same,ALOMY rating,[20]; rate 0.100 kg/ha,8 (8 - Approaching complete kill)
same,ALOMY rating,[20]; rate 0.400 kg/ha,8 (8 - Approaching complete kill)
